Experiments:
Format in all cases: in vivo
[1] = system: blackgrass (Alopecurus myosuroides); test: Test A1 preemergence, blackgrass
Excerpt: (§1) Seeds of plant species selected from, blackgrass (Alopecurus myosuroides), corn (Zea mays), Foxtail, Giant (giant foxtail, Setaria faberi), goosegrass (Eleusine indica), kochia (Bassia scoparia), Oat, Wild (wild oat, Avena fatua), Pigweed, Palmer (palmer amaranth, palmer pigweed, Amaranthus palmeri), ragweed (common ragweed, Ambrosia artemisiifolia), Ryegrass, Italian (Italian ryegrass, Lolium multiflorum), soybean (Glycine max), and wheat (Triticum aestivum) were planted into a blend of loam soil and sand and treated preemergence with a directed soil spray using test chemicals formulated in a non-phytotoxic solvent mixture which included a surfactant. At the same time, plants selected from these crop and weed species and also galium (catchweed bedstraw, Galium aparine) and horseweed (Erigeron canadensis) were planted in pots containing the same blend of loam soil and sand and treated with postemergence applications of test chemicals formulated in the same manner. Plants ranged in height from 2 to 10 cm and were in the one- to two-leaf stage for the postemergence treatment. […] A dash (-) response means no test result.

corn (Zea mays) [2] = test: Test A1 preemergence, corn
Excerpt: as §1

[3] = system: Foxtail, Giant (giant foxtail, Setaria faberi); test: Test A1 preemergence, Foxtail, Giant
Excerpt: as §1

[4] = system: goosegrass (Eleusine indica); test: Test A1 preemergence, goosegrass
Excerpt: as §1

kochia (Bassia scoparia) [5] = test: Test A1 preemergence, kochia
Excerpt: as §1

[6] = system: Oat, Wild (wild oat, Avena fatua); test: Test A1 preemergence, Oat, Wild
Excerpt: as §1

[7] = system: Pigweed, Palmer (palmer amaranth, palmer pigweed, Amaranthus palmeri); test: Test A1 preemergence, Pigweed, Palmer
Excerpt: as §1

[8] = system: ragweed (common ragweed, Ambrosia artemisiifolia); test: Test A1 preemergence, ragweed
Excerpt: as §1

[9] = system: Ryegrass, Italian (Italian ryegrass, Lolium multiflorum); test: Test A1 preemergence, Ryegrass, Italian
Excerpt: as §1

soybean (Glycine max) [10] = test: Test A1 preemergence, soybean
Excerpt: as §1

[11] = system: wheat (Triticum aestivum); test: Test A1 preemergence, wheat
Excerpt: as §1

[12] = system: blackgrass (Alopecurus myosuroides); test: Test A1 postemergence, blackgrass; conditions: Postemergence, 0 to 100 scale (0 no effect, 100 complete control)
Excerpt: as §1

corn (Zea mays) [13] = test: Test A1 postemergence, corn; conditions: Postemergence
Excerpt: as §1

[14] = system: Foxtail, Giant (giant foxtail, Setaria faberi); test: Test A1 postemergence, Foxtail, Giant; conditions: for Plant response rating, Foxtail, Giant: Postemergence
Excerpt: as §1

[15] = system: goosegrass (Eleusine indica); test: Test A1 postemergence, goosegrass; conditions: for Plant response rating, Goosegrass: Postemergence
Excerpt: as §1

kochia (Bassia scoparia) [16] = test: Test A1 postemergence, kochia; conditions: for Plant response rating, Kochia: Postemergence
Excerpt: as §1

[17] = system: Oat, Wild (wild oat, Avena fatua); test: Test A1 postemergence, Oat, Wild; conditions: for Plant response rating, Oat, Wild: Postemergence
Excerpt: as §1

[18] = system: Pigweed, Palmer (palmer amaranth, palmer pigweed, Amaranthus palmeri); test: Test A1 postemergence, Pigweed, Palmer; conditions: for Plant response rating, Pigweed, Palmer: Postemergence
Excerpt: as §1

[19] = system: ragweed (common ragweed, Ambrosia artemisiifolia); test: Test A1 postemergence, ragweed; conditions: for Plant response rating, Ragweed: Postemergence
Excerpt: as §1

[20] = system: Ryegrass, Italian (Italian ryegrass, Lolium multiflorum); test: Test A1 postemergence, Ryegrass, Italian; conditions: for Plant response rating, Ryegrass, Italian: Postemergence
Excerpt: as §1

soybean (Glycine max) [21] = test: Test A1 postemergence, soybean; conditions: for Plant response rating, Soybean: Postemergence
Excerpt: as §1

[22] = system: wheat (Triticum aestivum); test: Test A1 postemergence, wheat; conditions: for Plant response rating, Wheat: Postemergence
Excerpt: as §1

[23] = system: galium (catchweed bedstraw, Galium aparine); test: Test A1 postemergence, galium; conditions: for Plant response rating, Galium: Postemergence
Excerpt: as §1

[24] = system: barnyardgrass (Echinochloa crus-galli); test: Test B1 flooded paddy test, barnyardgrass; conditions: 250 g ai/ha, Flood, applied to paddy water, 2-leaf stage, visually evaluated after 10 to 14 days
Excerpt: (§2) A dash (-) response means no test result.

[25] = system: ducksalad (Heteranthera limosa); test: Test B1 flooded paddy test, ducksalad; conditions: 250 g ai/ha, Flood, applied to paddy water, 2-leaf stage, visually evaluated after 10 to 14 days
Excerpt: as §2

rice (Oryza sativa) = test: Test B1 flooded paddy test, rice; conditions: 250 g ai/ha, Flood, applied to paddy water, 2-leaf stage, visually evaluated after 10 to 14 days
Excerpt: as §2

[26] = 31 g ai/ha, 0 to 100 scale (0 no effect, 100 complete control)
[27] = 125 g ai/ha, 0 to 100 scale, 0 no effect, 100 complete control
[28] = 31 g ai/ha, 0 to 100 scale (0 no effect, 100 complete control), 10 days
[29] = 31 g ai/ha, postemergence, 0 to 100 scale (0 no effect, 100 complete control)

## COC1CCN(C(=O)c2cc(N(COC(=O)C(C)(C)C)S(=O)(=O)C(F)(F)F)c(C)c(C)c2C)CC1 [Compound 370]
[1]; [26]
  Plant response rating, Blackgrass: 0
[1]; [27]
  Plant response rating, Blackgrass: 0
Corn (Zea mays) [2]; [26]
  Plant response rating, Corn: 0
Corn (Zea mays) [2]; [27]
  Plant response rating, Corn: 0
[3]; [26]
  Plant response rating, Foxtail, Giant: 10
[3]; [27]
  Plant response rating, Foxtail, Giant: 90
[4]; [26]
  Plant response rating, Goosegrass: 30
[4]; [27]
  Plant response rating, Goosegrass: 90
Kochia (Bassia scoparia) [5]; [26]
  Plant response rating, Kochia: 0
Kochia (Bassia scoparia) [5]; [27]
  Plant response rating, Kochia: 20
[6]; [26]
  Plant response rating, Oat, Wild: 0
[6]; [27]
  Plant response rating, Oat, Wild: 0
[7]; [26]
  Plant response rating, Pigweed, Palmer: 30
[7]; [27]
  Plant response rating, Pigweed, Palmer: 70
[8]; [26]
  Plant response rating, Ragweed: 0
[8]; [27]
  Plant response rating, Ragweed: 70
[9]; [26]
  Plant response rating, Ryegrass, Italian: 30
[9]; [27]
  Plant response rating, Ryegrass, Italian: 30
Soybean (Glycine max) [10]; [26]
  Plant response rating, Soybean: 0
Soybean (Glycine max) [10]; [27]
  Plant response rating, Soybean: 0
[11]; [26]
  Plant response rating, Wheat: 0
[11]; [27]
  Plant response rating, Wheat: 10
[12]; 31 g ai/ha, 10 days
  Plant response rating, Blackgrass: 0
[12]; 125 g ai/ha
  Plant response rating, Blackgrass: 0
Corn (Zea mays) [13]; [28]
  Plant response rating, Corn: 0
Corn (Zea mays) [13]; 125 g ai/ha, 0 to 100 scale
  Plant response rating, Corn: 90
[14]; [29]
  Foxtail, Giant plant response rating: 10
[14]; 125 g ai/ha, 0 to 100 scale
  Plant response rating, Foxtail, Giant: 80
[15]; [29]
  Goosegrass plant response rating: 0
[15]; 125 g ai/ha, 0 to 100 scale
  Plant response rating, Goosegrass: 60
Kochia (Bassia scoparia) [16]; [29]
  Kochia plant response rating: 0
Kochia (Bassia scoparia) [16]; 125 g ai/ha, 0 to 100 scale
  Plant response rating, Kochia: 20
[17]; [29]
  Oat, Wild plant response rating: 0
[17]; 125 g ai/ha, 0 to 100 scale
  Plant response rating, Oat, Wild: 0
[18]; [29]
  Pigweed, Palmer plant response rating: 0
[18]; 125 g ai/ha, 0 to 100 scale
  Plant response rating, Pigweed, Palmer: 20
[19]; [29]
  Ragweed plant response rating: 50
[19]; 125 g ai/ha, 0 to 100 scale
  Plant response rating, Ragweed: 70
[20]; [29]
  Ryegrass, Italian plant response rating: 0
[20]; 125 g ai/ha, 0 to 100 scale
  Plant response rating, Ryegrass, Italian: 0
Soybean (Glycine max) [21]; [29]
  Soybean plant response rating: 50
Soybean (Glycine max) [21]; 125 g ai/ha, 0 to 100 scale
  Plant response rating, Soybean: 80
[22]; [29]
  Wheat plant response rating: 10
[22]; 125 g ai/ha, 0 to 100 scale
  Plant response rating, Wheat: 20
[23]; [29]
  Galium plant response rating: 90
[23]; 125 g ai/ha, 0 to 100 scale
  Plant response rating, Galium: 100
[24]
  Plant response rating, Barnyardgrass (0 to 100 scale, 0 is no effect, 100 is complete control): 95
[25]
  Plant response rating, Ducksalad (0 to 100 scale, 0 is no effect, 100 is complete control): 70
Rice (Oryza sativa)
  Plant response rating, Rice (0 to 100 scale, 0 is no effect, 100 is complete control): 25

## CCc1cc(C)c(C2=NOC3(CCCC3)C2)cc1NS(=O)(=O)C(F)(F)F [Compound 311]
[1]; [26]
  Plant response rating, Blackgrass: 20
[1]; [27]
  Plant response rating, Blackgrass: 40
Corn (Zea mays) [2]; [26]
  Plant response rating, Corn: 0
Corn (Zea mays) [2]; [27]
  Plant response rating, Corn: 0
[3]; [26]
  Plant response rating, Foxtail, Giant: 0
[3]; [27]
  Plant response rating, Foxtail, Giant: 10
[4]; [26]
  Plant response rating, Goosegrass: 10
[4]; [27]
  Plant response rating, Goosegrass: 60
Kochia (Bassia scoparia) [5]; [26]
  Plant response rating, Kochia: 0
Kochia (Bassia scoparia) [5]; [27]
  Plant response rating, Kochia: 0
[6]; [26]
  Plant response rating, Oat, Wild: 0
[6]; [27]
  Plant response rating, Oat, Wild: 0
[7]; [26]
  Plant response rating, Pigweed, Palmer: 30
[7]; [27]
  Plant response rating, Pigweed, Palmer: 30
[8]; [26]
  Plant response rating, Ragweed: 0
[8]; [27]
  Plant response rating, Ragweed: 0
[9]; [26]
  Plant response rating, Ryegrass, Italian: 0
[9]; [27]
  Plant response rating, Ryegrass, Italian: 60
Soybean (Glycine max) [10]; [26]
  Plant response rating, Soybean: 0
Soybean (Glycine max) [10]; [27]
  Plant response rating, Soybean: 0
[11]; [26]
  Plant response rating, Wheat: 0
[11]; [27]
  Plant response rating, Wheat: 0
[12]; 31 g ai/ha, 10 days
  Plant response rating, Blackgrass: 0
[12]; 125 g ai/ha
  Plant response rating, Blackgrass: 0
Corn (Zea mays) [13]; [28]
  Plant response rating, Corn: 0
Corn (Zea mays) [13]; 125 g ai/ha, 0 to 100 scale
  Plant response rating, Corn: 0
[14]; [28]
  Plant response rating, Foxtail, Giant: 0
[14]; 125 g ai/ha, 0 to 100 scale
  Plant response rating, Foxtail, Giant: 20
[15]; [28]
  Plant response rating, Goosegrass: 0
[15]; 125 g ai/ha, 0 to 100 scale
  Plant response rating, Goosegrass: 0
Kochia (Bassia scoparia) [16]; [28]
  Plant response rating, Kochia: 0
Kochia (Bassia scoparia) [16]; 125 g ai/ha, 0 to 100 scale
  Plant response rating, Kochia: 0
[17]; [28]
  Plant response rating, Oat, Wild: 0
[17]; 125 g ai/ha, 0 to 100 scale
  Plant response rating, Oat, Wild: 0
[18]; [28]
  Plant response rating, Pigweed, Palmer: 0
[18]; 125 g ai/ha, 0 to 100 scale
  Plant response rating, Pigweed, Palmer: 0
[19]; [28]
  Plant response rating, Ragweed: 0
[19]; 125 g ai/ha, 0 to 100 scale
  Plant response rating, Ragweed: 0
[20]; [28]
  Plant response rating, Ryegrass, Italian: 0
[20]; 125 g ai/ha, 0 to 100 scale
  Plant response rating, Ryegrass, Italian: 0
Soybean (Glycine max) [21]; [28]
  Plant response rating, Soybean: 10
Soybean (Glycine max) [21]; 125 g ai/ha, 0 to 100 scale
  Plant response rating, Soybean: 40
[22]; [28]
  Plant response rating, Wheat: 0
[22]; 125 g ai/ha, 0 to 100 scale
  Plant response rating, Wheat: 0
[23]; [28]
  Plant response rating, Galium: 0
[23]; 125 g ai/ha, 0 to 100 scale
  Plant response rating, Galium: 0
[24]
  Plant response rating, Barnyardgrass (0 to 100 scale, 0 is no effect, 100 is complete control): 0
[25]
  Plant response rating, Ducksalad (0 to 100 scale, 0 is no effect, 100 is complete control): 0
Rice (Oryza sativa)
  Plant response rating, Rice (0 to 100 scale, 0 is no effect, 100 is complete control): 0
